Data as given in ChEMBL document CHEMBL1151880, “Cytotoxicity and structure-activity relationships of four alpha-N-heterocyclic thiosemicarbazone derivatives crystal structure of 2-acetylpyrazine thiosemicarbazone” (Bioorg Med Chem Lett, 2009).

Experiments:
K562 = assay: Antitumor activity against human K562 cells assessed as induction of cell death after 48 hrs by MTT assay; format: functional, cell-based; settings: K562, 48 h
Bel-7402 = assay: Antitumor activity against human Bel7402 cells assessed as induction of cell death after 48 hrs by MTT assay; format: functional, cell-based; settings: Bel-7402, 48 h

SMILES | IC50 (K562) [µM] | IC50 (Bel-7402) [µM]
C/C(=N\N=C(\N)S)c1cnccn1 | 47.5 | 238
C/N=C(\S)N/N=C(\C)c1cnccn1 | 25.9 | 462
NC(=S)N/N=C(\c1ccccc1)c1ccccn1 | 28.2 | 376
CNC(=S)N/N=C(\c1ccccc1)c1ccccn1 | 0.002 | 0.138
